These results are taken from US5492896A, “Pseudopeptides having an antiviral action” (Bayer Aktiengesellschaft, priority 1993, dated 1996).

Structures are written as SMILES. Where two headings read alike, the source gives them in different places. Numbered stars: 1 amine (or outer) side, 2 acyl side, 3 side chain; on linkers, the order of the positions; unused ones are H or OH. Square brackets hold non-standard residues; d marks the D form. Peptide text beside a SMILES is read from it. * marks the point of attachment. Tos = Cc1ccc(S(=O)(=O)*)cc1; CO = O=C([*:1])[*:2]

One series addresses T1, HIV protease (HIV-1) (Human immunodeficiency virus type 1 group M subtype B, UniProt P04585).
T1 construct: purified HIV protease was incubated with a synthetic peptide
In words: HIV-specific protease enzyme test (synthetic peptide cleavage, RP-HPLC). The class given is biochemical. As to conditions: 50% inhibition of protease activity; purified HIV protease, synthetic Gag cleavage-site peptide. The procedure:
This is documented by an HIV-specific protease enzyme test.
The results of the examples described below were determined by the HIV test system described in the following literature references [compare Hansen, J., Billich, S., Schulze, T., Sukrow, S. and Molling, K. (1988), EMBO Journal, volume 7, No. 6, pages 1785-1791]: purified HIV protease was incubated with a synthetic peptide which imitates a cutting site in the Gag precursor protein and represents an in vivo cleavage site of HIV protease. The cleavage products formed from the synthetic peptide were analysed by reverse phase high performance liquid chromatography (RP-HPLC). The IC50 values stated relate to the substance concentration which causes 50% inhibition of protease activity under the abovementioned test conditions.

Series [1] deals with human embryonal lung fibroblasts (HELF). In words: Anticellular (toxic and cytostatic) action in the anti-HCMV screening test. The class given is cell-based. Here is the method:
(§1) The anti-HCMV action was determined in a screening test system in 96-well microtitre plates with the aid of human embryonal lung fibroblasts (HELF) cell cultures. The influence of the substances on the spread of the cytopathogenic effect was determined in comparison with the reference substance ganciclovir ([…]®-sodium), a clinically approved anti-HCMV chemotherapeutic. The substances are dissolved in DMSO (dimethyl sulphoxide; 50 mM) and investigated on microtitre plates (96-well) in final concentrations of 1000-0.00048 μM (micromolar) in duplicate determinations (4 substances/plate). Toxic and cytostatic actions of the substances are also recorded here. After the appropriate dilutions of the substances (1:2) on the microtitre plate, a suspension of 50-100 HCMV-infected HELF cells and 3×10^4 non-infected HELF cells in Eagle's MEM (minimal essential medium) with 10% foetal calf serum is introduced into each cup and the plates are incubated at 37° C. in a CO2 incubating cabinet for 6 days. After this period, the cell lawn in the substance-free virus controls, starting from 50-100 infectious centres, is completely destroyed by the cytopathogenic effect (CPE) of the HCMV (100% CPE). After staining with neutral red and fixing with formalin/methanol, the plates are evaluated with the aid of a projection microscope (Plaque Viewer). […]

In another series the test system is HCMV (Davis strain). In words: Anti-HCMV screening test: spread of cytopathogenic effect in HELF cell cultures. Type of series: cell-based, human cytomegalovirus. As to conditions: concentration causing 50% inhibition of the CPE, HELF cells, 6 days. The procedure: as §1
For orientation: Protection from cytopathic effect is a common read-out in antiviral testing.

Take `CC(C)[C@H](NC(=O)[C@H](CCCNC(=N)N)NC(=O)N[C@@H](Cc1ccccc1)C(=O)O)C(=O)N[C@@H](C=O)Cc1ccccc1` [IX, (2R)-2-{Nα -[((1S)-1-Carboxy-2-phenyl-ethyl)aminocarbonyl]-S-arginyl-S-valinyl}amino-3-phenyl-propan-1-al] ({Phe-CO}-Arg-Val-[dF]-aldehyde): the IC50 – broadly, the point on the concentration scale where inhibition reaches its midpoint – at HIV protease (HIV-1) was determined as 160 µM.
In the case of `Nc1nc(O)c2ncn(COC(CO)CO)c2n1` [Namevene ®, ganciclovir], the “CIC50 (μM) HELF” value in series [1] (maximum concentration which displays no evident anticellular action, HELF cells, 6 days) turned out to be 125 µM. Besides, the 50% inhibitory concentration (IC50) in the series on HCMV (Davis strain) (Human betaherpesvirus 5, 144 h) lay in the range of 2 to 4 µM.
Turning to `CC(C)[C@H](NC(=O)[C@H](CCCNC(=N)N)NC(=O)N[C@@H](Cc1ccccc1)C(=O)O)C(=O)N[C@H](C=O)Cc1ccccc1` [VIII, (2S)-2-{Nα -[((1S)-1-Carboxy-2-phenyl-ethyl)aminocarbonyl]-S-arginyl-S-valinyl}amino-3-phenyl-propan-1-al] ({Phe-CO}-Arg-Val-Phe-aldehyde), half-maximal inhibition on HIV protease (HIV-1) (IC50) was put at 19 µM.
Consider `COC(=O)[C@H](Cc1ccccc1)NC(=O)N[C@@H](CCCNC(=N)NS(=O)(=O)c1ccc(C)cc1)C(=O)N[C@H](C(=O)N[C@@H](C=O)Cc1ccccc1)C(C)C` [Example 4] ({OMe-Phe-CO}-Arg(Tos)-Val-[dF]-aldehyde), for which, in series [1], the “CIC50 (μM) HELF” value was 62.5 µM. The IC50 with HCMV (Davis strain) was 1.95 µM.
